Results on three compounds are retold here after ChEMBL document CHEMBL1126457, “Synthesis of novel targeted pro-prodrugs of anthracyclines potentially activated by a monoclonal antibody galactosidase conjugate (part 1)” (1992).

The test system of the test is L1210. The test can be described thus: Compound was evaluated for cytotoxicity against L1210 murine leukemia cells. Format: functional, Mus musculus.
For the compound `COc1cccc2c1C(=O)c1c(O)c3c(c(O)c1C2=O)C[C@@](O)(C(C)=O)C[C@@H]3O[C@H]1C[C@H](N)[C@H](O)[C@H](C)O1` [DAUNORUBICIN], the Cytotoxicity came to 0.02 µg/mL.

Regarding `COc1cccc2c1C(=O)c1c(O)c3c(c(O)c1C2=O)C[C@@](O)(C(C)=O)C[C@@H]3O[C@H]1C[C@@H](NC(=O)OCc2ccccc2O[C@H]2O[C@@H](CO)[C@H](O)[C@H](O)[C@@H]2O)[C@H](O)[C@H](C)O1`, the Cytotoxicity is >1 µg/mL.

`COc1cccc2c1C(=O)c1c(O)c3c(c(O)c1C2=O)C[C@@](O)(C(C)=O)C[C@@H]3O[C@H]1C[C@@H](NC(=O)OCc2ccc(O[C@H]3O[C@@H](CO)[C@H](O)[C@H](O)[C@@H]3O)cc2)[C@H](O)[C@H](C)O1`: the Cytotoxicity was >1 µg/mL.
